Measured values published in patent US20100197625A1, “SYNTHETIC LIPOPHILIC INOSITOL GLYCANS FOR TREATMENT OF CANCER AND GLUCOSE-METABOLISM DISORDERS” (priority 2006, published 2010).

Key:
[1] = system: human umbilical vein endothelial cells (HUVEC); assay: Cell death of human umbilical vein endothelial cells; format: cell-based; details: in 1 hour, with IG-1
[2] = system: native rat adipocytes; assay: Lipogenesis in native rat adipocytes; format: cell-based
Experimental: Adipocytes were isolated from epididymal fat pads dissected from freshly sacrificed male Long-Evans rats and incorporation of [6-^3H]-glucose into triglycerides in response to treatment with inositol glycans or insulin was measured as previously described (Chakraborty, N. and M. d'Alarcao, Bioorganic & Medicinal Chemistry 13 (2005) 6732-6741).

[3] = system: human normal cultured cells; assay: Proliferation of human normal cultured cells; format: cell-based; details: 1-100 μM, data not shown
Experimental: Human primary culture cells, dermal fibroblasts, epidermal keratinocytes and umbilical vein endothelial cells were purchased from Cell Applications (San Diego, Calif., USA) and cultured according to the manufacturer's instructions.
(§1) Cell proliferation assays were performed with the CellTiter 96 AQueous One Solution Cell Proliferation Assay kit according to the manufacturer's instructions (Promega, Madison, Wis., USA). Briefly, 5×10^3 cells/well in medium were placed onto 96-well plates. IGs were added to cellular cultures at final concentrations of 0, 1, 10, and 100 μM. Cultures were incubated for 3 days or 7 days and then added to 20 μL/well of CellTiter 96 AQueous One Solution Reagent, which contains a tetrazolium compound, 3-(4,5-dimethylthiazol-2-yl)-5-(3-carboxymethoxyphenyl)-2-(4-sulfophenyl)-2H-tetrazolium, an inner salt; MTS was added to the culture medium. After incubating the plate for 1 h in a CO2 incubator, absorbance at 490 nm was recorded with a 96-well plate reader.

[4] = system: human prostate cancer cells (PC3); assay: Cell proliferation / cell death assay, PC3; format: cell-based; details: PC3, in 24 hours after treatment
Experimental: (§2) Human pancreatic cancer cell lines (Panc-1, MiaPaca2, BXPC3, Aspc 1), human hepatoma cell line (HuH7), human gastric cancer cell lines (AGS, MKN45), human colon cancer cell line (CoCM-1), human mammary cancer cell line (MCF-7), human neuroblastoma (SH-SY5Y), human prostate cancer cells (PC3), and murine Ehrlich ascites cancer cells and mouse 3T3-L1 fibroblasts were obtained from American Type Culture Collection (Rockville, Md., USA). The cancer cells were cultured in RPMI 1640 containing 10% fetal calf serum. Cultures were maintained at 37° C. in a humidified atmosphere of 5% CO2.
as §1, with “Cultures were incubated for 3 days or 7 days and then added to 20 μL/well” left out

[5] = system: human neuroblastoma (SH-SY5Y); assay: Cell proliferation / cell death assay, SH-SY5Y; format: cell-based; details: in 24 hours after treatment
Experimental: as §2
as §1, with “Cultures were incubated for 3 days or 7 days and then added to 20 μL/well” left out

[6] = system: human hepatoma (HuH7); assay: Cell proliferation / cell death assay, HuH7; format: cell-based; details: HuH7, in 24 hours after treatment
Experimental: as §2
as §1, with “Cultures were incubated for 3 days or 7 days and then added to 20 μL/well” left out

[7] = system: Panc-1 cells; assay: Cell proliferation / cell death assay, Panc-1; format: cell-based, human; details: Panc-1, after 3 days (72 hours)
Experimental: as §2
as §1, with “Cultures were incubated for 3 days or 7 days and then added to 20 μL/well” left out

[8] = system: 3T3-L1 adipocytes; assay: Glycogen synthesis in 3T3-L1 adipocytes; format: cell-based, mouse; details: 100 μM
Experimental: (§3) 3T3-L1 fibroblasts were maintained in Dulbecco's modified Eagle's medium (DMEM) with 25 mM glucose plus 10% fetal bovine serum (FBS). Following 2 days at confluence, differentiation was initiated by the addition of DMEM containing 10% FBS, 167 nM insulin, […] dexamethasone, and 0.5 mM isobutylmethylxanthine. Three days later, the medium was replaced with DMEM plus 10% FBS and 167 nM insulin. After 2 more days, the medium was switched to DMEM plus 10% fetal bovine serum. Adipocytes were used 6-14 days after completion of the differentiation protocol, when >90% of the cells expressed the adipocyte phenotype. Prior to experiments, cells were washed two times with DMEM medium containing 5 mM glucose, 0.2% bovine serum albumin, 25 mM Hepes (pH 7.4), 100 units/ml penicillin, 100 units/ml streptomycin and 0.29 mg/ml glutamine, and were incubated in the same medium for 2 h. Glycogen and lipid synthesis were measured in 24-well dishes. […] The lipids were then extracted overnight with 5 ml of Betafluor (National Diagnostics), and glucose incorporation into lipid was measured by scintillation counting. 400 μl of the cell suspension was added to 600 μl of 50% KOH, and glycogen was precipitated and radioactivity was counted by a liquid scintillation counter

[9] = system: 3T3-L1 adipocytes; assay: Lipogenesis in 3T3-L1 adipocytes; format: cell-based, mouse; details: 100 μM
Experimental: as §3

SMILES | proliferation of human normal cultured cells [3] | stimulation of lipogenesis ([2]; native rat adipocytes, 40 μM) | cell death [7] | other results
CCCCC/C=C\C/C=C\C/C=C\C/C=C\CCCC(=O)O[C@H](COCCCCCCCCCCCCCCCCCC)COP(=O)(O)O [AAPA2, 1-0-alkyl (18:0)-2-0-acyl-(20:4)-sn-glycerol-phosphate] |  |  |  | effect on rapid cell death of HUVEC induced by IG-1 [1]: inhibits this rapid cell death
CCCCCCCCCCCCCCCC(=O)O[C@@H]1C(O)C(O)[C@H](O)[C@H](O[C@H]2OC(CO)[C@@H](O)[C@H](O)C2N)C1OP(=O)(O)O (stereo partly drawn) [IG2, 2-Amino-2-deoxy-α-D-glucopyranosyl-(1→6)-2-palmitoyl-D-myo-inositol-1-phosphate] | no effect on the proliferation |  |  | EC50 ([2]; Adipocyte, rat isolated adipocytes, fit to receptor binding model, read-out: EC50 value for stimulation of lipogenesis): 2500 nM; Emax ([2]; Adipocyte, rat isolated adipocytes, stimulation of lipogenesis, read-out: Amax (maximal effect)): 37%; stimulation of lipogenesis ([2]; rat isolated adipocytes, concentration series): stimulated lipogenesis; cancer cell death [4]: induced cancer cell death; cancer cell death [5]: induced cancer cell death; cancer cell death [6]: induced cancer cell death
CCCCCCCCCCCCCCCC(=O)OC1[C@H](O)C(O)C(O)[C@H](O)[C@@H]1O[C@H]1OC(CO)[C@@H](O)[C@H](O)C1N (stereo partly drawn) [IG13, 2-Amino-2-deoxy-α-D-glucopyranosyl-(1→6)-1-palmitoyl-D-myo-inositol] | did not affect the proliferation | little or no lipogenesis | induced cancer cell death | 
CCCCCCCCCCCCCCCC(=O)O[C@H]1[C@@H](O)[C@H](O)[C@@H](O)[C@H](O)[C@H]1O[C@H]1O[C@H](CO)[C@@H](O)[C@H](O)[C@H]1N [IG14, 2-Amino-2-deoxy-α-D-glucopyranosyl-(1→3)-2-palmitoyl-D-myo-inositol] | did not affect the proliferation | little or no lipogenesis | induced cancer cell death | 
CCCCCCCCCCCCCCCC(=O)O[C@@H]1C(O)C(O[C@H]2OC(CO)[C@@H](O)[C@H](O)C2N)[C@@H](O)[C@@H](O)C1O (stereo partly drawn) [IG15, 2-Amino-2-deoxy-α-D-glucopyranosyl-(1→3)-1-palmitoyl-D-myo-inositol] | did not affect the proliferation | little or no lipogenesis | induced cancer cell death | glycogen synthesis [8]: stimulates; lipogenesis [9]: stimulates
